# Measurements reported in US4065570A (priority 1975, dated 1977).
# Several values for one entry are separate records, joined by “and”; a condition that tells them apart may be missing. Equal entries are not always repeated.
# How the values were obtained:
# Polio I [1] = test: cells; format: cell-based; conditions: Primates
# Polio I [2] = test: organism not typed; format: cell-based; conditions: Vero
# [3] = cytotoxicity against Vero cells; format: cell-based, African green monkey; conditions: african green monkey
# Procedure: (§1) In preparing the compounds for testing, they were handled aseptically throughout. The compounds were dissolved in a minimum amount of a suitable solvent, and the final dilutions were made up to the required volume in a complete culture medium in a concentration not exceeding the predetermined maximum non-cytotoxic levels.
# (§2) The cell cultures used in all primary in vitro antipicorna virus screening tests were an established cell line of the African green monkey kidney (VERO), a primary cell culture of the Cercopythecus monkey kidney, or human embryonic lung diploid cells WI-38.
# (§3) The cytotoxic stuides were performed on each of the compounds to determine the level of response of the cells used to the potentially toxic action of the substances.
# (§4) The cells were grown in test tubes in a suitable medium. Immediately before use the initial medium was replaced with the one which contained the test compound in an appropriate concentration. After the virus was added, the infected culture was incubated at 37° C for a number of days and the cytopathic effect of the virus observed and recorded. The results were read every day in all of the tubes and the destruction of cells assessed in precentage of the cell sheet destroyed: 0-25-50-75-100%. As controls, cells with only virus (for cytopathic effect) or with only the compound (for cytotoxic effect) were used as well as the normal, uninfected cells (no cytotoxic -- no cytopathic effects).
# [4] = tested on: viruses of the Picorna group; test: antiviral activity (general statements); format: cell-based; conditions: result in words
# Procedure: The in vitro activity of representative compounds of the present invention are set forth below.
# as §1, §2, §4
# Net difference in cytopathic effect between treated and control tubes expressed in percentage give the extent of the inhibitory activity of the substance.
# Vero cells = test: cytotoxicity against Vero cells; format: cell-based, African green monkey; conditions: Vero cells; for Cytotoxicity CTD50: 50% inhibition of the cell growth; for Cytotoxicity CTD0: maximal non-toxic concentration
# Procedure: as §1, §2, §3, §4
compound,measurement,setting,value
"COc1ccc(C=C2NC(=O)NC2=O)cc1OC [5-(3',4'-DIMETHOXYBENZAL) HYDANTOIN, 5-(3',4'-Dimethoxybenzal) hydantoin]",inhibition at 50 µg/mL,Polio I [1],34%
same,inhibition at 100 µg/mL,Polio I [1],45%
"COc1ccc(C=C2C(=O)N(C(C)=O)C(=O)N2C(C)=O)cc1OC [Example 32, N,N-diacetylated 5-(3',4'-dimethoxybenzal) hydantoin]",inhibition at 1 µg/mL,"Polio I [2]; 316 TCID50, 1 μg/ml",100%
same,inhibition at 5 µg/mL,"Polio I [2]; 316 TCID50, 5 μg/ml",100%
same,inhibition at 10 µg/mL,"Polio I [2]; 316 TCID50, 10 μg/ml",100%
same,inhibition at 50 µg/mL,"Polio I [2]; 316 TCID50, 50 μg/ml",100%
same,CC50,"[3]; vero cells, read-out: Cytotoxicity CTD50",33 µg/mL
same,MNTC,"[3]; Vero cells, maximal non-toxic concentration, read-out: Cytotoxicity CTD0",10 µg/mL
same,anti-viral activity in tissue culture tests,[4],much greater anti-viral activity than the former
"Acetylated 5-(2',4',5'-trimethoxybenzal) hydantoin [Example 22]",% Inhibition,"Polio I [2]; 10 TCID50, 0.01 μg/ml",4%
same,% Inhibition,"Polio I [2]; 10 TCID50, 0.03 μg/ml",8%
same,% Inhibition,"Polio I [2]; 10 TCID50, 0.07 μg/ml",27%
same,% Inhibition,"Polio I [2]; 10 TCID50, 0.1 μg/ml",54%
same,% Inhibition,"Polio I [2]; 10 TCID50, 0.3 μg/ml",98%
same,% Inhibition,"Polio I [2]; 10 TCID50, 0.7 μg/ml",98%
same,% Inhibition,"Polio I [2]; 10 TCID50, 1 μg/ml",100%
same,% Inhibition,"Polio I [2]; 100 TCID50, 0.01 μg/ml",0%
same,% Inhibition,"Polio I [2]; 100 TCID50, 0.03 μg/ml",0%
same,% Inhibition,"Polio I [2]; 100 TCID50, 0.07 μg/ml",25%
same,% Inhibition,"Polio I [2]; 100 TCID50, 0.1 μg/ml",50%
same,% Inhibition,"Polio I [2]; 100 TCID50, 0.3 μg/ml",90%
same,% Inhibition,"Polio I [2]; 100 TCID50, 0.7 μg/ml",93%
same,% Inhibition,"Polio I [2]; 100 TCID50, 1 μg/ml",100%
same,Cytotoxicity CTD50,Vero cells,> 100 µg/mL
same,Cytotoxicity CTD0,Vero cells,1 µg/mL
"Acetylated 5-(3',4',5'-trimethoxybenzal) hydantoin [Example 23]",% Inhibition,"Polio I [2]; 316 TCID50, 0.1 μg/ml",0%
same,% Inhibition,"Polio I [2]; 316 TCID50, 0.3 μg/ml",14%
same,% Inhibition,"Polio I [2]; 316 TCID50, 0.7 μg/ml",36%
same,% Inhibition,"Polio I [2]; 316 TCID50, 1 μg/ml",46%
same,% Inhibition,"Polio I [2]; 316 TCID50, 3.3 μg/ml",56%
same,% Inhibition,"Polio I [2]; 316 TCID50, 6.7 μg/ml",72%
same,% Inhibition,"Polio I [2]; 316 TCID50, 10 μg/ml",96%
same,Cytotoxicity CTD50,Vero cells,50 µg/mL
same,Cytotoxicity CTD0,Vero cells,10 µg/mL
"Acetylated 5-(3',4'-dimethoxybenzal) hydantoin",degree of antiviral activity,[4]; listed as Example 30,highly effective against Picorna group of viruses
same,degree of antiviral activity,"[4]; listed as acetylated 5-(3',4'-dimethoxybenzal) hydantoin (anhydrous sodium acetate and ace)",exceptionally good antiviral activity
"Acetylated 5-(3',5'-dimethoxybenzal) hydantoin [Example 21]",% Inhibition,"Polio I [2]; 10 TCID50, 0.5 μg/ml",15%
same,% Inhibition,"Polio I [2]; 10 TCID50, 1 μg/ml",50%
same,% Inhibition,"Polio I [2]; 10 TCID50, 5 μg/ml",100%
same,% Inhibition,"Polio I [2]; 10 TCID50, 10 μg/ml",100%
same,% Inhibition,"Polio I [2]; 100 TCID50, 0.5 μg/ml",0%
same,% Inhibition,"Polio I [2]; 100 TCID50, 1 μg/ml",32%
same,% Inhibition,"Polio I [2]; 100 TCID50, 5 μg/ml",100%
same,% Inhibition,"Polio I [2]; 100 TCID50, 10 μg/ml",100%
same,Cytotoxicity CTD50,Vero cells,> 100 µg/mL and 100 µg/mL
same,Cytotoxicity CTD0,Vero cells,100 µg/mL
Acetylated 5-(3'-methoxy-4'-acetoxybenzal) hydantoin [Example 15],Cytotoxicity CTD50,Vero cells,> 100 µg/mL
same,Cytotoxicity CTD0,Vero cells,> 10 µg/mL
Acetylated 5-benzalhydantoin [Example 16],Cytotoxicity CTD50,Vero cells,83 µg/mL
same,Cytotoxicity CTD0,Vero cells,10 µg/mL
"N-monoacetylated 5-(3',4'-dimethoxybenzal) hydantoin [Example 31]",% Inhibition,"Polio I [2]; 316 TCID50, 1 μg/ml",0%
same,% Inhibition,"Polio I [2]; 316 TCID50, 5 μg/ml",0%
same,% Inhibition,"Polio I [2]; 316 TCID50, 10 μg/ml",7%
same,% Inhibition,"Polio I [2]; 316 TCID50, 50 μg/ml",84%
same,Cytotoxicity CTD50,Vero cells,100 µg/mL
same,Cytotoxicity CTD0,Vero cells,10 µg/mL
same,anti-viral activity in tissue culture tests,[4],more active than the unacetylated compound
